Our source for the EC50 values is patent US20250195521A1 (Revolution Medicines, Inc., priority 2020, published 2025).

Where two headings read alike, the source gives them in different places. A value given as a limit tells only on which side of the number the result lay.

For orientation: EC50 means the concentration needed to bring the measured effect to its halfway point.

The experiment has as its system K-Ras G12C (NCI-H358 cells). As to the kind of experiment: Potency assay: pERK in NCI-H358 cells. The format is cell-based, human. The settings on record: Homo sapiens, read-out: pERK EC50 (H358 KRAS G12C). The method, then:
The purpose of this assay is to measure the ability of test compounds to inhibit K-Ras in cells. […] This procedure measures a decrease in cellular pERK in response to test compounds. The procedure described below in NCI-H358 cells is applicable to K-Ras G12C.
Note: This protocol may be executed substituting other cell lines to characterize inhibitors of other RAS variants, including, for example, AsPC-1 (K-Ras G12D), Capan-1 (K-Ras G12V), or NCI-H1355 (K-Ras G13C).
NCI-H358 cells were grown and maintained using media and procedures recommended by the ATCC. On the day prior to compound addition, cells were plated in 384-well cell culture plates (40 μl/well) and grown overnight in a 37° C., 5% CO2 incubator. Test compounds were prepared in 10, 3-fold dilutions in DMSO, with a high concentration of 10 mM. On the day of assay, 40 nL of test compound was added to each well of cell culture plate using an Echo550 liquid handler (LabCyte®). Concentrations of test compound were tested in duplicate. After compound addition, cells were incubated 4 hours at 37° C., 5% CO2. Following incubation, culture medium was removed and cells were washed once with phosphate buffered saline.
In some experiments, cellular pERK level was determined using the AlphaLISA SureFire Ultra p-ERK1/2 Assay Kit (PerkinElmer). Cells were lysed in 25 μL lysis buffer, with shaking at 600 RPM at room temperature. […] After a 2-hour incubation in the dark, 5 μL donor mix was added, plate was sealed, and incubated 2 hours at room temperature. Signal was read on an Envision plate reader (PerkinElmer) using standard AlphaLISA settings. Analysis of raw data was carried out in Excel (Microsoft) and Prism (GraphPad). Signal was plotted vs. the decadal logarithm of compound concentration, and IC50 was determined by fitting a 4-parameter sigmoidal concentration response model.
In other experiments, cellular pERK was determined by In-Cell Western. […] Fixed cells were washed 4 times for 5 minutes with TBS containing 0.1% Triton X-100 (TBST) and then blocked with 100 μL Odyssey blocking buffer (LI-COR) for 60 minutes at room temperature. Primary antibody (PERK, CST-4370, Cell Signaling Technology) was diluted 1:200 in blocking buffer, and 50 μL was added to each well and incubated overnight at 4° C. Cells were washed 4 times for 5 minutes with TBST. Secondary antibody (IR-800CW rabbit, LI-COR, diluted 1:800) and DNA stain DRAQ5 (LI-COR, diluted 1:2000) were added and incubated 1-2 hours at room temperature. Cells were washed 4 times for 5 minutes with TBST. Plates were scanned on a Li—COR Odyssey CLx Imager. Analysis of raw data was carried out in Excel (Microsoft) and Prism (GraphPad). Signal was plotted vs. the decadal logarithm of compound concentration, and IC50 was determined by fitting a 4-parameter sigmoidal concentration response model.

For `CCn1c(-c2cnccc2COC)c2c3cc(ccc31)-c1cc(O)cc(c1)C[C@H](NC(=O)[C@H](C(C)C)N(C)C(=O)OC1CN(C)C1)C(=O)N1CCC[C@H](N1)C(=O)OCC(C)(C)C2` [Compound A101], the concentration for a half-maximal effect (EC50) (NCI-H358 cells, 4 hours) is under 5 µM. On the same count and under the same terms, as for `CCn1c(-c2cccnc2[C@H](C)OC)c2c3cc(ccc31)-c1cccc(c1)C[C@H](NC(=O)[C@H](C(C)C)N(C)C(=O)[C@H]1CCN(C(=O)CN)C1)C(=O)N1CCC[C@H](N1)C(=O)OCC(C)(C)C2` [Compound A105], the figure is under 5 µM; as for `CCn1c(-c2cccnc2[C@H](C)OC)c2c3cc(ccc31)-c1csc(n1)C[C@H](NC(=O)[C@H](C(C)C)N(C)C(=O)[C@H]1CCN(C)C1)C(=O)N1CCC[C@H](N1)C(=O)OCC(C)(C)C2` [Compound A108], under 5 µM. The same measure, in the same setting: as for `CCn1c(-c2cccnc2[C@H](C)OC)c2c3cc(ccc31)-c1cc(O)cc(c1)C[C@H](NC(=O)[C@H](C(C)C)N(C)C(=O)[C@H]1CCN(CCO)C1)C(=O)N1CCC[C@H](N1)C(=O)OCC(C)(C)C2` [Compound A111], the figure is under 5 µM; as for `CCn1c(-c2cccnc2[C@H](C)OC)c2c3cc(ccc31)-c1cc(O)cc(c1)C[C@H](NC(=O)[C@H](C(C)C)N(C)C(=O)[C@@H]1CCNC1)C(=O)N1CCC[C@H](N1)C(=O)OCC(C)(C)C2` [Compound A129], under 5 µM. Regarding `CCn1c(-c2cccnc2[C@H](C)OC)c2c3cc(ccc31)-c1cc(O)cc(c1)C[C@H](NC(=O)[C@H](C(C)C)N(C)C(=O)C1CC3CC1CN3)C(=O)N1CCC[C@H](N1)C(=O)OCC(C)(C)C2` (stereo partly shown) [Compound A133], the EC50 (NCI-H358 cells, 4 hours) is under 5 µM. On the same count and under the same terms, as for `CCn1c(-c2cccnc2[C@H](C)OC)c2c3cc(ccc31)-c1csc(n1)C[C@H](NC(=O)[C@H](C1CCCC1)N(C)C(C)=O)C(=O)N1CCC[C@H](N1)C(=O)OCC(C)(C)C2` [Compound A141], the figure is under 5 µM; as for `CCn1c(-c2cccnc2[C@H](C)OC)c2c3cc(ccc31)-c1cc(O)cc(c1)C[C@H](NC(=O)[C@H](C(C)C)N(C)C(=O)C1CC13CCNC3)C(=O)N1CCC[C@H](N1)C(=O)OCC(C)(C)C2` (stereo partly shown) [Compound A148], under 5 µM. On the same count and under the same terms, as for `C=C[C@@H]1C[C@]1(N)C(=O)N(C)[C@H](C(=O)N[C@H]1Cc2cc(O)cc(c2)-c2ccc3c(c2)c(c(-c2cccnc2[C@H](C)OC)n3CC)CC(C)(C)COC(=O)[C@@H]2CCCN(N2)C1=O)C(C)C` [Compound A149], the figure is under 5 µM; as for `CCn1c(-c2cccnc2[C@H](C)OC)c2c3cc(ccc31)-c1cc(O)cc(c1)C[C@H](NC(=O)[C@H](C(C)C)N(C)C(=O)C1(C#N)CC1)C(=O)N1CCC[C@H](N1)C(=O)OCC(C)(C)C2` [Compound A159], under 5 µM; as for `CCn1c(-c2cccnc2[C@H](C)OC)c2c3cc(ccc31)-c1cc(O)cc(c1)C[C@H](NC(=O)[C@H](C(C)C)N(C)C(=O)[C@H]1CC1(F)F)C(=O)N1CCC[C@H](N1)C(=O)OCC(C)(C)C2` [Compound A166], under 5 µM. Turning to `CCn1c(-c2cccnc2[C@H](C)OC)c2c3cc(ccc31)-c1cc(O)cc(c1)C[C@H](NC(=O)[C@H](C(C)C)N(C)C(=O)[C@@H]1CC1(F)F)C(=O)N1CCC[C@H](N1)C(=O)OCC(C)(C)C2` [Compound A167], the 50% effective concentration (EC50) (NCI-H358, 4 h) is under 5 µM. For the compound `CCn1c(-c2cccnc2[C@H](C)OC)c2c3cc(ccc31)-c1cc(O)cc(c1)C[C@H](NC(=O)[C@H](C(C)C)N(C)C(=O)C1Cc3cccnc3C1)C(=O)N1CCC[C@H](N1)C(=O)OCC(C)(C)C2` (stereo partly shown) [Compound A250], where the note is “NCI-H358 cells, 4 hours”, the EC50 was under 5 µM. On the same count and under the same terms, as for `CCn1c(-c2cnccc2COC)c2c3cc(ccc31)-c1cc(O)cc(c1)C[C@H](NC(=O)C1CCCC1C(F)F)C(=O)N1CCC[C@H](N1)C(=O)OCC(C)(C)C2` (stereo partly shown) [Compound A261], the figure is under 5 µM; as for `CCN1C[C@@H](C(=O)N(C)[C@H](C(=O)N[C@H]2Cc3cc(O)cc(c3)-c3ccc4c(c3)c(c(-c3cnccc3COC)n4CC)CC(C)(C)COC(=O)[C@@H]3CCCN(N3)C2=O)C(C)C)CC1=O` [Compound A262], under 5 µM. Still for that read-out and setting: as for `CCn1c(-c2cccnc2[C@H](C)OC)c2c3cc(ccc31)-c1csc(n1)C[C@H](NC(=O)N1CCCC1)C(=O)N1CCC[C@H](N1)C(=O)OCC(C)(C)C2` [Compound A267], the figure is under 5 µM; as for `CCn1c(-c2cccnc2[C@H](C)OC)c2c3cc(ccc31)-c1csc(n1)C[C@H](NC(=O)[C@H](C(C)C)N(C)C(=O)N1CC[C@@H]1C(=O)NC)C(=O)N1CCC[C@H](N1)C(=O)OCC(C)(C)C2` [Compound A281], under 5 µM. `CCn1c(-c2cccnc2[C@H](C)OC)c2c3cc(ccc31)-c1csc(n1)C[C@H](NC(=O)[C@H](C(C)C)N(C)C(=O)N1CCOC3(CN(C)C3)C1)C(=O)N1CCC[C@H](N1)C(=O)OCC(C)(C)C2` [Compound A294]: the concentration for a half-maximal effect (EC50) (NCI-H358 cells, 4 hours) is under 5 µM. The same measure, in the same setting: as for `CCn1c(-c2cccnc2[C@H](C)OC)c2c3cc(ccc31)-c1csc(n1)C[C@H](NC(=O)[C@H](C(C)C)N(C)C(=O)N1CC(n3nc(C)cc3C)C1)C(=O)N1CCC[C@H](N1)C(=O)OCC(C)(C)C2` [Compound A297], the figure is under 5 µM; as for `CCn1c(-c2cccnc2[C@H](C)OC)c2c3cc(ccc31)-c1csc(n1)C[C@H](NC(=O)[C@H](C(C)C)N(C)C(=O)N1CC(OC(F)F)C1)C(=O)N1CCC[C@H](N1)C(=O)OCC(C)(C)C2` [Compound A302], under 5 µM. Regarding `CCn1c(-c2cccnc2[C@H](C)OC)c2c3cc(ccc31)-c1csc(n1)C[C@H](NC(=O)[C@H](C(C)C)N(C)C(=O)N1CCN(C(=O)CO)CC1)C(=O)N1CCC[C@H](N1)C(=O)OCC(C)(C)C2` [Compound A306], the EC50 (NCI-H358 cells, 4 hours) is under 5 µM. The same measure, in the same setting: in the case of `CCn1c(-c2cccnc2[C@H](C)OC)c2c3cc(ccc31)-c1csc(n1)C[C@H](NC(=O)[C@H](C(C)C)N(C)C(=O)N1CCO[C@@H](C)C1)C(=O)N1CCC[C@H](N1)C(=O)OCC(C)(C)C2` [Compound A309] it was under 5 µM; in that of `CCN(CC)C1CN(C(=O)N(C)[C@H](C(=O)N[C@H]2Cc3nc(cs3)-c3ccc4c(c3)c(c(-c3cccnc3[C@H](C)OC)n4CC)CC(C)(C)COC(=O)[C@@H]3CCCN(N3)C2=O)C(C)C)C1` [Compound A319], under 5 µM; in that of `CCn1c(-c2cccnc2[C@H](C)OC)c2c3cc(ccc31)-c1csc(n1)C[C@H](NC(=O)[C@H](C(C)C)N(C)C(=O)N(C)CC(C)C)C(=O)N1CCC[C@H](N1)C(=O)OCC(C)(C)C2` [Compound A332], under 5 µM. On the same count and under the same terms, in the case of `CCn1c(-c2cccnc2[C@H](C)OC)c2c3cc(ccc31)-c1csc(n1)C[C@H](NC(=O)[C@H](C(C)C)N(C)C(=O)N1CC(NC)C1)C(=O)N1CCC[C@H](N1)C(=O)OCC(C)(C)C2` [Compound A337] it was under 5 µM; in that of `CCN(C(=O)N(C)[C@H](C(=O)N[C@H]1Cc2nc(cs2)-c2ccc3c(c2)c(c(-c2cccnc2[C@H](C)OC)n3CC)CC(C)(C)COC(=O)[C@@H]2CCCN(N2)C1=O)C(C)C)C1CC1` [Compound A352], under 5 µM; in that of `CCn1c(-c2cccnc2[C@H](C)OC)c2c3cc(ccc31)-c1csc(n1)C[C@H](NC(=O)[C@H](C(C)C)N(C)C(=O)N(C)C1CC1)C(=O)N1CCC[C@H](N1)C(=O)OCC(C)(C)C2` [Compound A353], under 5 µM.

On to `CCn1c(-c2cccnc2[C@H](C)OC)c2c3cc(ccc31)-c1csc(n1)C[C@H](NC(=O)[C@H](C(C)C)N(C)C(=O)N1CC(CO)C1)C(=O)N1CCC[C@H](N1)C(=O)OCC(C)(C)C2` [Compound A356], for which the EC50 (NCI-H358 cells, 4 hours) was under 5 µM. On the same count and under the same terms, in the case of `CCn1c(-c2cccnc2[C@H](C)OC)c2c3cc(ccc31)-c1csc(n1)C[C@H](NC(=O)[C@H]1CCO1)C(=O)N1CCC[C@H](N1)C(=O)OCC(C)(C)C2` [Compound A360] it was under 5 µM. Same read-out and setting: as for `CCn1c(-c2cccnc2[C@H](C)OC)c2c3cc(ccc31)-c1cc(O)cc(c1)C[C@H](NC(=O)[C@H](C(C)C)N(C)C(=O)[C@H]1CC[C@@H](CN(C)C)O1)C(=O)N1CCC[C@H](N1)C(=O)OCC(C)(C)C2` [Compound A397], the figure is under 5 µM; as for `CCn1c(-c2cccnc2[C@H](C)OC)c2c3cc(ccc31)-c1cc(O)cc(c1)C[C@H](NC(=O)[C@H](C(C)C)N(C)C(=O)[C@@H]1OC[C@@H]3CCC[C@@H]31)C(=O)N1CCC[C@H](N1)C(=O)OCC(C)(C)C2` [Compound A407], under 5 µM.
